Values after ≈ are worked out from the molar mass of the structure shown.
Key:
Assay type in all cases: functional
Cryptococcus neoformans = assay: Antifungal activity against Cryptococcus neoformans ATCC 32264 by microbroth dilution method
Aspergillus fumigatus = assay: Antifungal activity against Aspergillus fumigatus ATCC 26934 by micro-broth dilution method
[1] = system: Trichophyton mentagrophytes; assay: Antifungal activity against Trichophyton mentagrophytes ATCC 9972 by micro-broth dilution method
Nannizzia gypsea = assay: Antifungal activity against Microsporum gypseum C115 by microbroth dilution method
Candida albicans = assay: Antifungal activity against Candida albicans ATCC 10231 by micro-broth dilution method
Aspergillus niger = assay: Antifungal activity against Aspergillus niger ATCC 9029 by micro-broth dilution method
Trichophyton rubrum = assay: Antifungal activity against Trichophyton rubrum C113 by microbroth dilution method
Saccharomyces cerevisiae = assay: Antifungal activity against Saccharomyces cerevisiae ATCC 9763 by microbroth dilution method
Aspergillus flavus = assay: Antifungal activity against Aspergillus flavus ATCC 9170 by micro-broth dilution method
Candida tropicalis = assay: Antifungal activity against Candida tropicalis C131 by micro-broth dilution method

Structure (SMILES)	MIC (Cryptococcus neoformans) [µg/mL]	MIC (Aspergillus fumigatus) [µg/mL]	MIC [1] [µg/mL]	MIC (Nannizzia gypsea) [µg/mL]	MIC (Candida albicans) [µg/mL]	MIC (Aspergillus niger) [µg/mL]	MIC (Trichophyton rubrum) [µg/mL]	MIC (Saccharomyces cerevisiae) [µg/mL]	MIC (Aspergillus flavus) [µg/mL]	MIC (Candida tropicalis) [µg/mL]
N#CC(Nc1ccccc1)c1ccco1 (stereo not given)	> 250	> 250	250 (≈ 1260 µM)	> 250	> 250	> 250	250 (≈ 1260 µM)	> 250	> 250	> 250
Cc1ccc(NCc2ccncc2)cc1	50 (≈ 252 µM)	100 (≈ 504 µM)	25 (≈ 126 µM)	50 (≈ 252 µM)	100 (≈ 504 µM)	100 (≈ 504 µM)	25 (≈ 126 µM)	100 (≈ 504 µM)	200 (≈ 1010 µM)	50 (≈ 252 µM)
C=CCC(Nc1ccc(C)cc1)c1cccs1 (stereo not given)	> 250	> 250	6.25 (≈ 25.7 µM)	50 (≈ 205 µM)	> 250	> 250	12.5 (≈ 51.4 µM)	> 250	> 250	> 250
Cc1ccc(NCc2cccn2C)cc1	> 250	> 250	> 250	> 250	> 250	> 250	> 250	> 250	> 250	> 250
Cc1cc(C)cc(NCc2cccnc2)c1	100 (≈ 471 µM)	100 (≈ 471 µM)	25 (≈ 118 µM)	25 (≈ 118 µM)	> 250	200 (≈ 942 µM)	25 (≈ 118 µM)	200 (≈ 942 µM)	200 (≈ 942 µM)	> 250
Cc1ccc(NCc2ccccn2)cc1	> 250	> 250	50 (≈ 252 µM)	50 (≈ 252 µM)	> 250	> 250	50 (≈ 252 µM)	> 250	> 250	> 250
Cc1ccc(NC(C#N)c2ccsc2)cc1 (stereo not given)	125 (≈ 547 µM)	> 250	125 (≈ 547 µM)	250 (≈ 1090 µM)	> 250	> 250	125 (≈ 547 µM)	> 250	> 250	> 250
C=CCC(Nc1ccc(Cl)cc1)c1ccsc1 (stereo not given)	250 (≈ 948 µM)	> 250	> 250	> 250	> 250	> 250	> 250	> 250	> 250	> 250
Cc1cc(C)cc(NCc2ccccn2)c1	50 (≈ 236 µM)	100 (≈ 471 µM)	50 (≈ 236 µM)	50 (≈ 236 µM)	> 250	100 (≈ 471 µM)	50 (≈ 236 µM)	> 250	100 (≈ 471 µM)	200 (≈ 942 µM)
C=CCC(Nc1ccc(OC)cc1)c1ccncc1 (stereo not given)	> 250	> 250	125 (≈ 491 µM)	62.5 (≈ 246 µM)	> 250	> 250	125 (≈ 491 µM)	> 250	> 250	> 250
Cc1cc(C)cc(NCc2ccncc2)c1	50 (≈ 236 µM)	100 (≈ 471 µM)	25 (≈ 118 µM)	25 (≈ 118 µM)	250 (≈ 1180 µM)	100 (≈ 471 µM)	25 (≈ 118 µM)	250 (≈ 1180 µM)	200 (≈ 942 µM)	250 (≈ 1180 µM)
C=CCC(Nc1ccc(Cl)cc1)c1cccn1C (stereo not given)	> 250	> 250	250 (≈ 959 µM)	> 250	> 250	> 250	250 (≈ 959 µM)	> 250	> 250	> 250
C[C@@H]1[C@H](O)[C@@H](C)/C=C/C=C/C=C/C=C/C=C/C=C/C=C/[C@H](O[C@@H]2O[C@H](C)[C@@H](O)[C@H](N)[C@@H]2O)C[C@@H]2O[C@](O)(C[C@@H](O)C[C@@H](O)[C@H](O)CC[C@@H](O)C[C@@H](O)CC(=O)O[C@H]1C)C[C@H](O)[C@H]2C(=O)O [AMPHOTERICIN B]	0.25 (≈ 0.271 µM)	0.5 (≈ 0.541 µM)	–	–	1 (≈ 1.08 µM)	0.5 (≈ 0.541 µM)	–	0.5 (≈ 0.541 µM)	0.5 (≈ 0.541 µM)	0.5 (≈ 0.541 µM)
Cc1ccc(NCc2cccnc2)cc1	> 250	> 250	250 (≈ 1260 µM)	250 (≈ 1260 µM)	> 250	> 250	250 (≈ 1260 µM)	> 250	> 250	> 250
N#CC(Nc1ccc(Cl)cc1)c1ccsc1 (stereo not given)	> 250	> 250	125 (≈ 503 µM)	250 (≈ 1010 µM)	> 250	> 250	125 (≈ 503 µM)	> 250	> 250	> 250
Cn1cccc1CNc1ccc(Cl)cc1	125 (≈ 566 µM)	> 250	250 (≈ 1130 µM)	> 250	> 250	> 250	250 (≈ 1130 µM)	> 250	> 250	> 250
C=CCC(Nc1ccccc1)c1ccsc1 (stereo not given)	250 (≈ 1090 µM)	> 250	250 (≈ 1090 µM)	125 (≈ 545 µM)	> 250	> 250	250 (≈ 1090 µM)	> 250	> 250	> 250
Ic1ccc(NCc2cccnc2)cc1	50 (≈ 161 µM)	50 (≈ 161 µM)	25 (≈ 80.6 µM)	50 (≈ 161 µM)	> 250	100 (≈ 322 µM)	25 (≈ 80.6 µM)	200 (≈ 645 µM)	50 (≈ 161 µM)	200 (≈ 645 µM)

Structure (SMILES)	MIC (Cryptococcus neoformans) [µg/mL]	MIC (Aspergillus fumigatus) [µg/mL]	MIC [1] [µg/mL]	MIC (Nannizzia gypsea) [µg/mL]	MIC (Candida albicans) [µg/mL]	MIC (Aspergillus niger) [µg/mL]	MIC (Trichophyton rubrum) [µg/mL]	MIC (Saccharomyces cerevisiae) [µg/mL]	MIC (Aspergillus flavus) [µg/mL]	MIC (Candida tropicalis) [µg/mL]
Oc1ccc(CNc2ccccc2)cc1	> 250	> 250	25 (≈ 125 µM)	50 (≈ 251 µM)	> 250	> 250	25 (≈ 125 µM)	250 (≈ 1250 µM)	> 250	250 (≈ 1250 µM)
C=CCC(Nc1ccc(C)cc1)c1ccco1 (stereo not given)	> 250	> 250	> 250	> 250	> 250	> 250	> 250	> 250	> 250	> 250
CN(C)c1ccc(CNc2ccccc2)cc1	> 250	200 (≈ 884 µM)	> 250	> 250	> 250	> 250	> 250	> 250	> 250	> 250
Clc1ccc(NCc2ccncc2)cc1	62.5 (≈ 286 µM)	125 (≈ 572 µM)	62.5 (≈ 286 µM)	62.5 (≈ 286 µM)	31.2 (≈ 143 µM)	125 (≈ 572 µM)	62.5 (≈ 286 µM)	62.5 (≈ 286 µM)	125 (≈ 572 µM)	31.2 (≈ 143 µM)
c1ccc(NCc2ccncc2)cc1	> 250	250 (≈ 1360 µM)	125 (≈ 678 µM)	125 (≈ 678 µM)	> 250	250 (≈ 1360 µM)	125 (≈ 678 µM)	> 250	250 (≈ 1360 µM)	250 (≈ 1360 µM)
COc1ccc(CNc2ccccc2)cc1	> 250	> 250	25 (≈ 117 µM)	25 (≈ 117 µM)	> 250	> 250	25 (≈ 117 µM)	> 250	> 250	> 250
Clc1ccc(NCc2cccs2)cc1	62.5 (≈ 279 µM)	125 (≈ 559 µM)	62.5 (≈ 279 µM)	62.5 (≈ 279 µM)	62.5 (≈ 279 µM)	250 (≈ 1120 µM)	62.5 (≈ 279 µM)	250 (≈ 1120 µM)	250 (≈ 1120 µM)	62.5 (≈ 279 µM)
Cc1ccc(NCc2cccs2)cc1	> 250	> 250	50 (≈ 246 µM)	12.5 (≈ 61.5 µM)	> 250	> 250	25 (≈ 123 µM)	> 250	> 250	> 250
O=[N+]([O-])c1cccc(NCc2cccnc2)c1	> 250	> 250	25 (≈ 109 µM)	25 (≈ 109 µM)	> 250	> 250	25 (≈ 109 µM)	> 250	> 250	> 250
c1ccc(NCc2ccccn2)cc1	> 250	250 (≈ 1360 µM)	25 (≈ 136 µM)	125 (≈ 678 µM)	250 (≈ 1360 µM)	250 (≈ 1360 µM)	25 (≈ 136 µM)	> 250	> 250	250 (≈ 1360 µM)
C=CCC(Nc1ccc(Cl)c(Cl)c1)c1ccco1 (stereo not given)	> 250	> 250	> 250	> 250	> 250	> 250	> 250	> 250	> 250	> 250
c1ccc(NCc2cccs2)cc1	> 250	> 250	25 (≈ 132 µM)	25 (≈ 132 µM)	> 250	> 250	12.5 (≈ 66 µM)	> 250	> 250	> 250
Clc1ccc(NCc2ccsc2)cc1	62.5 (≈ 279 µM)	125 (≈ 559 µM)	62.5 (≈ 279 µM)	62.5 (≈ 279 µM)	62.5 (≈ 279 µM)	250 (≈ 1120 µM)	62.5 (≈ 279 µM)	250 (≈ 1120 µM)	250 (≈ 1120 µM)	62.5 (≈ 279 µM)
Clc1ccc(NCc2ccoc2)cc1	62.5 (≈ 301 µM)	62.5 (≈ 301 µM)	62.5 (≈ 301 µM)	125 (≈ 602 µM)	125 (≈ 602 µM)	62.5 (≈ 301 µM)	62.5 (≈ 301 µM)	125 (≈ 602 µM)	62.5 (≈ 301 µM)	125 (≈ 602 µM)
CN(C/C=C/C#CC(C)(C)C)Cc1cccc2ccccc12 [TERBINAFINE]	–	–	0.04 (≈ 0.137 µM)	0.04 (≈ 0.137 µM)	–	–	0.01 (≈ 0.0343 µM)	–	–	–
c1ccc(NCc2ccoc2)cc1	125 (≈ 722 µM)	250 (≈ 1440 µM)	125 (≈ 722 µM)	250 (≈ 1440 µM)	250 (≈ 1440 µM)	250 (≈ 1440 µM)	125 (≈ 722 µM)	250 (≈ 1440 µM)	250 (≈ 1440 µM)	250 (≈ 1440 µM)
Cc1ccc(NCc2ccco2)cc1	100 (≈ 534 µM)	125 (≈ 668 µM)	50 (≈ 267 µM)	100 (≈ 534 µM)	> 250	250 (≈ 1340 µM)	25 (≈ 134 µM)	> 250	250 (≈ 1340 µM)	250 (≈ 1340 µM)

From ChEMBL document CHEMBL1143950, “Antifungal and cytotoxic activities of some N-substituted aniline derivatives bearing a hetaryl fragment” (Bioorg Med Chem, 2008)
